From patent publication US20240317706A1, “COMPOUNDS THAT MEDIATE PROTEIN DEGRADATION AND METHODS OF USE THEREOF” (Monte Rosa Therapeutics, Inc., priority 2021, published 2024)

How the values were obtained:
CDK2 = target: T1, CDK2 (Homo sapiens, UniProt P24941); assay: NanoBiT assay (CDK2 degradation); type: cell-based; conditions: 24 hours; for Dmax: HEK293, HEK293 clonal line with CRISPR KI HiBiT tag on CDK2, Endurazine live cell substrate
T1 construct: HEK293 clonal lines with CRISPR KI HiBiT tag on CDK2 proteins; host or cells: HEK293 clonal line, CRISPR knock-in HiBiT-CDK2, stably expressing LgBiT
Experimental: HEK293 clonal lines with CRISPR KI HiBiT tag on either CDK2 proteins and stably expressing LgBiT protein were obtained from Promega (Madison, WI). Cells were plated at 5000 cells per well using Multiflo (BioTek) in 384-well white solid bottom plates (Corning, 3570BC) in 25 ul volume in DMEM media (DMEM, high glucose, HEPES, no phenol red (ThermoFisher Scientific, 21063029)) containing 10% FBS (Corning, 35-075-CV), 1% Penicillin/Streptomycin ((ThermoFisher Scientific, 15140-122), and 1% Endurazine (Nano-Glo Endurazine Live Cell Substrate (Promega, N2571)). Cells were incubated for 16 hours at 37 C, 5% CO2. 75 nL of a compound at 30 μM were dosed into the plate using an Echo® 650 liquid handler (Labcyte). Cells were incubated at 37° C., 5% CO2 for 24 hours and then signal was read on a Pherastar FSX using “LUM plus” optic module.
Analysis was performed in Scinamic (Scinamic, Cambridge, MA). Luminescence response (R) was calculated by the formula: response=100*(S−N)/(P−N) where S is the signal of the well, N and P the mean negative and positive control values respectively of the same plate. The luminescence response was then fitted in Scinamic using a 3-parameter agonist logistic fit (hillslope=1, EC50>0, top/bottom unconstrained).

CRBN-DDB1 = CRBN-DDB1 (Homo sapiens, UniProt Q96SW2); assay: Compound binding to CRBN by HTRF assay; conditions: CRBN-DDB1 2.5 nM, Cy5-Thalidomide 100 nM, 30 min; Ki from geometric mean IC50 by Cheng-Prustoff transformation
Experimental: Compound activity was monitored in a Homogenous Time-Resolved Fluorescence (HTRF) assay using 1-[5-({2-[2-(2-{[2-(2,6-dioxopiperidin-3-yl)-1,3-dioxo-2,3-dihydro-1H-isoindol-4-yl]oxy}acetamido)ethoxy]ethyl}carbamoyl)pentyl]-3,3-dimethyl-2-[(1E,3E)-5-[(2E)-1,3,3-trimethyl-5-sulfo-2,3-dihydro-1H-indol-2-ylidene]penta-1,3-dien-1-yl]-3H-indol-1-ium-5-sulfonate as a fluorescent probe. Biochemical assays were conducted in Greiner white 384 well HiBase plates (Cat. No 784075-25) in 10 μL total volume. A one pot detection solution of CRBN-DDB1 (2.5 nM), Anti-His Terbium Cryptate Gold (1×, PerkinElmer Cat. #: 61HI2TLB), and Cy5-Thalidomide (100 nM, Tenova Cat.: T52461) was prepared in 20 mM HEPES, 20 mM NaCl, 0.2 mM TCEP, 0.2 mM EDTA, and 0.005% Tween20 was dispensed to each assay plate. Compounds were stored in dry, ambient temperatures at 10 mM. A 10-point, 1:3 dilution series was prepared from 10 mM stock concentrations in Echo-compatible LDV plates. 10 nL of each compound dilution series was dispensed into assays wells using an Echo 650 (Labcyte inc. USA). 10 nL of 10 mM Lenalidomide was transferred into the active-control wells for the assay and 10 nL of DMSO was transferred into the neutral-control wells. The assay was then allowed to incubate for 30 min at ambient temperature after transferring compound. Plate measurements were taken on a Pherastar FSX (BMG Labtech, Germany) using the HTRF Red filter (Ex. 337 nm, em1: 620 nm, em2: 665 nm) (Flashes: 50, Integration time: 60-400 us, Z-height: 10 mm, Ratio-multiplier: 10,000). The HTRF signal was then subsequently normalized to the neutral and active controls. Analysis and IC50 values were derived using KNIME analytics (KNIME Zurich) transformation and fitting within Collaborative Drug Discovery (Collaborative Drug Discovery USA). Ki was derived from the geometric mean of the IC50 values using the Cheng-Prustoff transformation.

Chain of CRBN-DDB1 (Q96SW2 whole entry): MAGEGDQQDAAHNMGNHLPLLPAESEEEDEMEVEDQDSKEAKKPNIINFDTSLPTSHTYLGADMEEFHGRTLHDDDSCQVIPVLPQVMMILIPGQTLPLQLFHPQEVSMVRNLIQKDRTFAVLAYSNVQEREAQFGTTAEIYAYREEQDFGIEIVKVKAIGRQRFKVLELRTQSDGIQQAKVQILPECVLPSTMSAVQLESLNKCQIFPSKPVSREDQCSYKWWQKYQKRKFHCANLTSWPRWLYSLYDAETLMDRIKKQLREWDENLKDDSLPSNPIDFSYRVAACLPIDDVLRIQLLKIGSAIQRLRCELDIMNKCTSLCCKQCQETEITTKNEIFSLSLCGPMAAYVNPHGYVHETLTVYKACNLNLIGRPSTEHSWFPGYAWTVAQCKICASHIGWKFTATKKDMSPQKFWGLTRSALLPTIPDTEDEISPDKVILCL
Chain of CRBN-DDB1 (Q16531 whole entry partner): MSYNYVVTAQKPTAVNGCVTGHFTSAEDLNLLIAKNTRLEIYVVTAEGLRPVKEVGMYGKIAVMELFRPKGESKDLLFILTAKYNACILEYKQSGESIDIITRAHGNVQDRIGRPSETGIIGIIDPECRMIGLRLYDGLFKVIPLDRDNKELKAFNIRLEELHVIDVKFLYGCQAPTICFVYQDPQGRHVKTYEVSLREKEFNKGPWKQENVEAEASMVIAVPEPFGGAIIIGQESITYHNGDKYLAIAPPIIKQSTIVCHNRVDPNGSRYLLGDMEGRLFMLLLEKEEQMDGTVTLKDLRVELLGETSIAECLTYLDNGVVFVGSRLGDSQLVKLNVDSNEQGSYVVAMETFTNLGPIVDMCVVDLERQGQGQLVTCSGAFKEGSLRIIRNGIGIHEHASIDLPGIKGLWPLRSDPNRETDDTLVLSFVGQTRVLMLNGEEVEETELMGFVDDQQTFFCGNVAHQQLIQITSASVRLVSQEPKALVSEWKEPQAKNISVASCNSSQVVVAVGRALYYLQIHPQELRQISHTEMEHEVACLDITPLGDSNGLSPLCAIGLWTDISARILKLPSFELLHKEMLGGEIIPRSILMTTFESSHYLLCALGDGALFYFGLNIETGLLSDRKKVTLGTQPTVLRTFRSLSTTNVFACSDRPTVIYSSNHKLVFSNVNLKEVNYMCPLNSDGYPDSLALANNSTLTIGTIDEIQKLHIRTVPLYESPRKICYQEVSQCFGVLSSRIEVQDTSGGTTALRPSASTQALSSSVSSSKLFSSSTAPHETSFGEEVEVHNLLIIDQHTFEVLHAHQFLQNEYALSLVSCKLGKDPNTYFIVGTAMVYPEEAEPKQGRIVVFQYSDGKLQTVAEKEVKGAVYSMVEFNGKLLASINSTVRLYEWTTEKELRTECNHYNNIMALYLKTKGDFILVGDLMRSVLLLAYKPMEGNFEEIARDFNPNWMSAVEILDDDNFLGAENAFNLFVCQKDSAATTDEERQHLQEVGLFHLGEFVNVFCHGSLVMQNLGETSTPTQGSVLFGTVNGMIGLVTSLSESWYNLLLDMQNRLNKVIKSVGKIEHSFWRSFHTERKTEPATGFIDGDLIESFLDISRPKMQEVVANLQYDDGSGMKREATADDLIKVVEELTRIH

Row | Dmax (CDK2) [%] | Ki (CRBN-DDB1) [nM] | Structure (SMILES) | CDK2 NanoBiT Dmax (%) (CDK2; HEK293 clonal line with CRISPR KI HiBiT tag on CDK2, Endurazine live cell substrate)
1 | 10 to 50 | 100 to 1000 | O=C1CCC(N2Cc3ccc(CNC(=O)OCC4CC5(C4)CC(F)(F)C5)cc3C2=O)C(=O)N1 (stereo not drawn) [Compound 125, (6,6-difluorospiro[3.3]heptan-2-yl)methyl ((2-(2,6-dioxopiperidin-3-yl)-3-oxoisoindolin-5-yl)methyl)carbamate] | 
2 | 50 to 80 | ≤ 100 | O=C1CCC(N2Cc3ccc(CNC(=O)OCC4CC5(C4)CC4(CCC4)C5)cc3C2=O)C(=O)N1 (stereo not drawn) [Compound 127, dispiro[3.1.36.14]decan-2-ylmethyl((2-(2,6-dioxopiperidin-3-yl)-3-oxoisoindolin-5-yl)methyl)carbamate] | 
3 | 10 to 50 | 100 to 1000 | C[C@H](CC1CC1)OC(=O)NCc1ccc2c(c1)C(=O)N(C1CCC(=O)NC1=O)C2 (stereo partly drawn) [Compound 56, (2R)-1-cyclopropylpropan-2-yl N-{[2-(2,6-dioxopiperidin-3-yl)-3-oxo-2,3-dihydro-1H-isoindol-5-yl]methyl}carbamate] | 
4 | ≤ 10 | 100 to 1000 | O=C1CCC(N2Cc3ccc(CNC(=O)OCC4(CC5CC5)CC4)cc3C2=O)C(=O)N1 (stereo not drawn) [Compound 80, [1-(cyclopropylmethyl)cyclopropyl]methyl N-{[2-(2,6-dioxopiperidin-3-yl)-3-oxo-2,3-dihydro-1H-isoindol-5-yl]methyl}carbamate] | 

Continued, compound first:

Row | Structure (SMILES) | Dmax (CDK2) [%] | Ki (CRBN-DDB1) [nM] | CDK2 NanoBiT Dmax (%) (CDK2; HEK293 clonal line with CRISPR KI HiBiT tag on CDK2, Endurazine live cell substrate)
5 | CC(C)(C)OC(=O)N1CC(COC(=O)NCc2ccc3c(c2)C(=O)N(C2CCC(=O)NC2=O)C3)C1 (stereo not drawn) [Compound 45, tert-butyl 3-{[({[2-(2,6-dioxopiperidin-3-yl)-3-oxo-2,3-dihydro-1H-isoindol-5-yl]methyl}carbamoyl)oxy]methyl}azetidine-1-carboxylate] | ≤ 10 | 100 to 1000 | 
6 | O=C1CCC(N2Cc3c(Br)cc(CNc4nnc(C5CC6(CCC6)C5)o4)cc3C2=O)C(=O)N1 (stereo not drawn) [Compound 138, 3-(4-bromo-1-oxo-6-(((5-(spiro[3.3]heptan-2-yl)-1,3,4-oxadiazol-2-yl)amino)methyl)isoindolin-2-yl)piperidine-2,6-dione] | 50 to 80 | ≤ 100 | 
7 | O=C1CCC(N2Cc3ccc(CNC(=O)OC4CCC5(CCC5)CC4)cc3C2=O)C(=O)N1 (stereo not drawn) [Compound 133, spiro[3.5]nonan-7-yl ((2-(2,6-dioxopiperidin-3-yl)-3-oxoisoindolin-5-yl)methyl)carbamate] | 10 to 50 | 100 to 1000 | 
8 | O=C1CCC(N2Cc3c(cc(CNc4nnc(C5CC6(CCC6)C5)o4)cc3C(F)(F)F)C2=O)C(=O)N1 (stereo not drawn) [Compound 145, 3-(1-oxo-6-(((5-(spiro[3.3]heptan-2-yl)-1,3,4-oxadiazol-2-yl)amino)methyl)-4-(trifluoromethyl)isoindolin-2-yl)piperidine-2,6-dione] |  | 100 to 1000 | B (B represents a Dmax value of >10% and ≤50%)
9 | CC12COC(COC(=O)NCc3ccc4c(c3)C(=O)N(C3CCC(=O)NC3=O)C4)(C1)C2 (stereo not drawn) [Compound 72, {4-methyl-2-oxabicyclo[2.1.1]hexan-1-yl}methyl N-{[2-(2,6-dioxopiperidin-3-yl)-3-oxo-2,3-dihydro-1H-isoindol-5-yl]methyl}carbamate] | ≤ 10 | 100 to 1000 | 
10 | O=C1CCC(N2Cc3ccc(CNC(=O)OCC4CCS(=O)(=O)C4)cc3C2=O)C(=O)N1 (stereo not drawn) [Compound 51, (1,1-dioxo-1lambda6-thiolan-3-yl)methyl N-{[2-(2,6-dioxopiperidin-3-yl)-3-oxo-2,3-dihydro-1H-isoindol-5-yl]methyl}carbamate] | ≤ 10 | ≤ 100 | 
11 | COCC(OC(=O)NCc1ccc2c(c1)C(=O)N(C1CCC(=O)NC1=O)C2)C1CC1 (stereo not drawn) [Compound 49, 1-cyclopropyl-2-methoxyethyl N-{[2-(2,6-dioxopiperidin-3-yl)-3-oxo-2,3-dihydro-1H-isoindol-5-yl]methyl}carbamate] | 10 to 50 | 100 to 1000 | 
12 | O=C1CCC(N2Cc3c(F)cc(CNC(=O)OCC4CC5(CCC5)C4)cc3C2=O)C(=O)N1 (stereo not drawn) [Compound 122, spiro[3.3]heptan-2-ylmethyl ((2-(2,6-dioxopiperidin-3-yl)-7-fluoro-3-oxoisoindolin-5-yl)methyl)carbamate] | 50 to 80 | 100 to 1000 | 
